pKi: −log10 of the molar value.
Legend:
[1] = target: T1, DHP Site of the Calcium Channel (Oryctolagus cuniculus, UniProt P07293); assay: Binding Assay for Drugs Acting at the DHP Site of the Calcium Channel (3H-nitrendipine displacement, washed rabbit skeletal muscle membranes); settings: read-out: KI (moles)
T1 construct: Washed rabbit skeletal muscle membranes; from tissue; host or cells: rabbit skeletal muscle, washed membranes (fraction 2-8×)
Protocol: A. Binding Assay for Drugs Acting at the DHP Site of the Calcium Channel.
The assay was carried out as described by Fairhurst et al., Life Sciences, 32, 1331 (1983). Washed rabbit skeletal muscle membranes (fraction 2-8×) were incubated for 30 minutes at 25° C. in 2 ml final volume of medium containing 12.5 mM HEPES buffer pH 7.4 and 0.5×10^-9 M ^3 H-nitrendipine having a specific activity of approximately 17 Ci/m mol.
The incubation tubes were rapidly chilled in ice and the contents filtered through Whatman GF/B filters on a Millipore manifold, and the filters washed with 2×10 ml ice-cold HEPES buffer. The filters were placed in scintillation counting vials with 8 ml of Cytoscint cocktail, disrupted mechanically by shaking for 30 minutes and counted.
Drugs which interact at the DHP site will reduce this specific binding in a dose-dependent manner. The assays for the compounds of this invention were made with logarithmically spaced concentrations, the data were plotted on a probit-concentration plot, and the IC50 read off. The KI of the drug was calculated by standard techniques.

[2] = test system: spontaneous hypertensive rats (SHR); assay: Hypotensive Activity: systolic arterial blood pressure, indirect tail cuff method, oral administration; assay type: in vivo, rat; settings: oral 10 m mol/Kg in polyethylene glycol, positive = fall; for Mean Change in Blood Pressure (Pressure before Administration minus pressure after Administration mm Hg) 10 min: 10 min after administration; for Mean Change in Blood Pressure (Pressure before Administration minus pressure after Administration mm Hg) 20 min: 20 min after administration; for Mean Change in Blood Pressure (Pressure before Administration minus pressure after Administration mm Hg) 30 min: 30 min after administration; for Mean Change in Blood Pressure (Pressure before Administration minus pressure after Administration mm Hg) 60 min: 60 min after administration; for Mean Change in Blood Pressure (Pressure before Administration minus pressure after Administration mm Hg) 90 min: 90 min after administration; for Mean Change in Blood Pressure (Pressure before Administration minus pressure after Administration mm Hg) 120 min: 120 min after administration
Protocol: Systolic arterial blood pressure was measured with the indirect tail cuff method in spontaneous hypertensive rats (SHR). The change in baseline pressure (170-210 mm Hg) was recorded at various time points following oral administration of 10 m mol/Kg of the test compound in polyethylene glycol.

T1 sequence (P07293 whole entry): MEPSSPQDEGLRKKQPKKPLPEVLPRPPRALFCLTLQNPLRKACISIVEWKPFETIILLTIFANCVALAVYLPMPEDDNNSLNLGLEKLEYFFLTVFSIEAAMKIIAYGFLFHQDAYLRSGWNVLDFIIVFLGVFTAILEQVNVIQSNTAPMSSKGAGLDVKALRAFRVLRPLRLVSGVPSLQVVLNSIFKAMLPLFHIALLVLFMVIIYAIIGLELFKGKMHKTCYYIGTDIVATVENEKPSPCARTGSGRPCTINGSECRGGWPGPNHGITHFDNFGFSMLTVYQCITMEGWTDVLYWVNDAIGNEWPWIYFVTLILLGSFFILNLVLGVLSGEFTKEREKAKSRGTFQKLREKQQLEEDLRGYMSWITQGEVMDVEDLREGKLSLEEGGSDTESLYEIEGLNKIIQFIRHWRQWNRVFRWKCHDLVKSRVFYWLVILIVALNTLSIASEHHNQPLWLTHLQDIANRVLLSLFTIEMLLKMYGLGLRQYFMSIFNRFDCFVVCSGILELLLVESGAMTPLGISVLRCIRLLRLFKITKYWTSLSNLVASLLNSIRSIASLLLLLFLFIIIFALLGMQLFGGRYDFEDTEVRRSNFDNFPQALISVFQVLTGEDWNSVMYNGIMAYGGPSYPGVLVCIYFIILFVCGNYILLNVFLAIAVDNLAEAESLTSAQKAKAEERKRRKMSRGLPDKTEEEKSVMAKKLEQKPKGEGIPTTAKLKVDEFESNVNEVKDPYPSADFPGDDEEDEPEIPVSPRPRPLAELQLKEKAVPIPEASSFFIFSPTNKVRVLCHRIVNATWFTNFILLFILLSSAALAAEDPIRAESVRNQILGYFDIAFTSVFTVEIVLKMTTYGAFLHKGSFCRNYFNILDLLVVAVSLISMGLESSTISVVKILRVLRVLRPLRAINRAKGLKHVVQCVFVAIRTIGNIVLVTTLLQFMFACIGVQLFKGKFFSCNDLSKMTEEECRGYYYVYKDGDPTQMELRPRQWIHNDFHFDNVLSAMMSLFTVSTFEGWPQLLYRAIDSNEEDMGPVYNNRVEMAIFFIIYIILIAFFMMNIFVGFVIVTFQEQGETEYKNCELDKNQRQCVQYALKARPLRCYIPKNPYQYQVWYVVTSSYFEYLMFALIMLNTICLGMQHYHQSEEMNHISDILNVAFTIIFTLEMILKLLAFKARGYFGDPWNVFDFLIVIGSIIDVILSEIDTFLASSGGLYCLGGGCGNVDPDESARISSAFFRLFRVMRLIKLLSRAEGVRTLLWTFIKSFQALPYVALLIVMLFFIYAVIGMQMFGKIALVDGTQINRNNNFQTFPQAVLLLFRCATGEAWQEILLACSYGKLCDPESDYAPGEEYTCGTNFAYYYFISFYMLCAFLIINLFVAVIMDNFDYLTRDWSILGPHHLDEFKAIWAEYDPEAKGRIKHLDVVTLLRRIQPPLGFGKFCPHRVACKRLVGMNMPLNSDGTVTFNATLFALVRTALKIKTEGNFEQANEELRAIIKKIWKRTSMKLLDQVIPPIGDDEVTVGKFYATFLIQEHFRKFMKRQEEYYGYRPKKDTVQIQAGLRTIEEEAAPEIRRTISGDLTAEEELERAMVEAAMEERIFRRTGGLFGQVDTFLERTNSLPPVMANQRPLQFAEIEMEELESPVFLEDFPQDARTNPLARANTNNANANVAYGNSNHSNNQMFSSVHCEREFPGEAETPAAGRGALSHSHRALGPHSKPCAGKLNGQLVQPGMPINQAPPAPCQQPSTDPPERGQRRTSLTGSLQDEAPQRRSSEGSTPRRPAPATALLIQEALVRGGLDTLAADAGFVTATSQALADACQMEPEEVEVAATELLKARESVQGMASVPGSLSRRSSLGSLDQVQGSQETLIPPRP

Compound	pKi [1]	Mean Change in Blood Pressure (Pressure before Administration minus pressure after Administration mm Hg) 10 min [2]	Mean Change in Blood Pressure (Pressure before Administration minus pressure after Administration mm Hg) 20 min [2]	Mean Change in Blood Pressure (Pressure before Administration minus pressure after Administration mm Hg) 30 min [2]	Mean Change in Blood Pressure (Pressure before Administration minus pressure after Administration mm Hg) 60 min [2]	Mean Change in Blood Pressure (Pressure before Administration minus pressure after Administration mm Hg) 90 min [2]	Mean Change in Blood Pressure (Pressure before Administration minus pressure after Administration mm Hg) 120 min [2]
COC(=O)C1=C(C)NC(C)=C(C(=O)OCCN2C(=O)c3ccccc3C2=O)C1c1cccc(C)c1 (stereo not drawn) [Example 1, 2,6-dimethyl-3-(2-phthalimidocarbethoxy)-4-(3-methylphenyl)-5-carbomethoxy-1,4-dihydropyridine]	7.71	17 mm Hg	10 mm Hg	4 mm Hg	-2 mm Hg	5 mm Hg	-4 mm Hg
COC(=O)C1=C(C)NC(C)=C(C(=O)OCCN2C(=O)c3ccccc3C2=O)C1c1cccc([N+](=O)[O-])c1 (stereo not drawn) [Example 2, 2,6-dimethyl-3-(2-phthalimidocarbethoxy)-4-(3-nitrophenyl)-5-carbomethoxy-1,4-dihydropyridine]	9.15	9 mm Hg	10 mm Hg	10 mm Hg	6 mm Hg	0 mm Hg	0 mm Hg
COC(=O)C1=C(C)NC(C)=C(C(=O)OCCN2C(=O)c3ccccc3C2=O)C1c1cccc(C(F)(F)F)c1 (stereo not drawn) [Example 3, 2-6-dimethyl-3-(2-phthalimidocarbethoxy)-4-(3-trifluoromethylphenyl)-5-carbomethoxy-1,4-dihydropyridine]	7.32						
CC1=C(C(=O)OCCN2C(=O)c3ccccc3C2=O)C(c2cccc([N+](=O)[O-])c2)C(C(=O)OCCN2C(=O)c3ccccc3C2=O)=C(C)N1 [Example 4, 2,6-dimethyl-3,5-di(2-phthalimidocarbethoxy)-4-(3-nitrophenyl)-1,4-dihydropyridine]	8.60	9 mm Hg	8 mm Hg	14 mm Hg	11 mm Hg	14 mm Hg	10 mm Hg
COC(=O)C1=C(C)NC(C)=C(C(=O)OCCCN2C(=O)c3ccccc3C2=O)C1c1cccc([N+](=O)[O-])c1 (stereo not drawn) [Example 5]	8.32	-5 mm Hg	-14 mm Hg	-10 mm Hg	-6 mm Hg	-6 mm Hg	-5 mm Hg
COC(=O)C1=C(C)NC(C)=C(C(=O)OCCCCCCN2C(=O)c3ccccc3C2=O)C1c1cccc([N+](=O)[O-])c1 (stereo not drawn) [Example 6, 2,6-Dimethyl-3-(6-phthalimidocarbohexoxy)-4-(3-nitrophenyl)-5-carbomethoxy-1,4-dihydropyridine]	8.72	18 mm Hg	10 mm Hg	12 mm Hg	14 mm Hg	2 mm Hg	0 mm Hg
COC(=O)C1=C(C)NC(C)=C(C(=O)OCCN2Cc3ccccc3C2=O)C1c1cccc([N+](=O)[O-])c1 (stereo not drawn) [Example 7, 2,6-Dimethyl-3-(2-phthalimidinocarbethoxy)-4-(3-nitrophenyl)-5-carbomethoxy-1,4-dihydropyridine]	7.70	14 mm Hg	19 mm Hg	10 mm Hg	10 mm Hg	20 mm Hg	19 mm Hg
COC(=O)C1=C(C)NC(C)=C(C(=O)OCCN2Cc3ccccc3C2)C1c1cccc([N+](=O)[O-])c1 (stereo not drawn) [Example 8, 2,6-Dimethyl-3-(2-isoindolinylcarbethoxy)-4-(3-nitrophenyl)-5-carbomethoxy-1,4-dihydropyridine]	8.46	36 mm Hg	30 mm Hg	32 mm Hg	16 mm Hg	4 mm Hg	2 mm Hg
COC(=O)C1=C(C)NC(C)=C(C(=O)OCCN2C(=O)CCC2=O)C1c1cccc([N+](=O)[O-])c1 (stereo not drawn) [Example 9, 2,6-Dimethyl-3-(2-succimimidocarbethoxy)-4-(3-nitrophenyl)-5-carbomethoxy-1,4-dihydropyridine]	6.82	36 mm Hg	10 mm Hg	5 mm Hg	3 mm Hg	19 mm Hg	11 mm Hg
COC(=O)C1=C(C)NC(C)=C(C(=O)OCCN2CCCC2=O)C1c1cccc([N+](=O)[O-])c1 (stereo not drawn) [Example 10, 2,6-Dimethyl-3-[2-(2-oxopyrrolidino)carbethoxy]-4-(3-nitrophenyl)-5-carbomethoxy-1,4-dihydropyridine]	6.57	-17 mm Hg	-5 mm Hg	11 mm Hg	7 mm Hg	6 mm Hg	7 mm Hg
CC1=C(C(=O)OCCn2c(C)ccc2C)C(c2cccc([N+](=O)[O-])c2)C(C(=O)OCCn2c(C)ccc2C)=C(C)N1 [Example 12, 2,6-Dimethyl-3,5-(2,5-dimethylpyrrolylcarbethoxy)-4-(3-nitrophenyl)-1,4-dihydropyridine]	8.60						
COC(=O)C1=C(C)NC(C)=C(C(=O)OCCN(C)Cc2ccccc2)C1c1cccc([N+](=O)[O-])c1 (stereo not drawn) [Nicardipine, nicardipine, reference compound]	8.96						
COC(=O)C1=C(C)NC(C)=C(C(=O)OC)C1c1ccccc1[N+](=O)[O-] [Nifedipine, nifedipine, reference compound]		37 mm Hg	36 mm Hg	20 mm Hg	15 mm Hg	4 mm Hg	4 mm Hg
